Measured values as given in ChEMBL document CHEMBL4382216, “Asymmetric synthesis and biological evaluation of imidazole- and oxazole-containing synthetic lipoxin A4 mimetics (sLXms)” (Eur J Med Chem, 2019).

Key:
[1] = tested on: Mus musculus; assay: (§1) Anti-inflammatory activity in zymosan-induced C57BL/6J mouse peritonitis model assessed as PMN leukocytes level in peritoneal cavity at 125 ng, ip pretreated for 30 mins followed by zymosan treatment and redosing of test compound at 1 hr post zymosan addition and measured at 24 hrs post zymosan addition by flow cytometry (reference value: 100%); type: functional
[2] = tested on: Mus musculus; assay: as §1, with “total cell count” for “PMN leukocytes level”; type: functional
[3] = tested on: Mus musculus; assay: as §1, with “reduction in total cell count” for “PMN leukocytes level”, “cytometry relative to basal level” for “cytometry”, “14)” for “100%)”; type: functional
[4] = tested on: J774.1; assay: Anti-inflammatory activity in mouse J774.1 cells assessed as reduction in LPS-stimulated TNFalpha level at 10 nM preincubated for 1 hr followed by LPS stimulation for 24 hrs by ELISA relative to control; type: functional; set-up: scale not given: the % may be the effect or the level left
[5] = tested on: THP-1; assay: Cytotoxicity against human THP1 cells harboring NFkB-Luc assessed as LDH release at 10'12 M after 24 hrs by spectrophotometric method relative to control; type: cell-based; conditions: thp-1, 24 h
[6] = tested on: Mus musculus; assay: as §1, with “total cell count” for “PMN leukocytes level”, “43” for “125”; type: functional
[7] = tested on: J774.1; assay: Anti-inflammatory activity in mouse J774.1 cells assessed as reduction in LPS-stimulated TNFalpha level at 100 nM preincubated for 1 hr followed by LPS stimulation for 24 hrs by ELISA relative to control; type: functional; set-up: scale not given: the % may be the effect or the level left

SMILES	Emax [1]	Emax [2]	fold change (FC) [3]	Activity [4]	fold change (FC) [5]	Emax [6]	Activity [7]
CCCCC[C@H](O)/C=C/C=C\C=C\C=C\[C@@H](O)[C@@H](O)CCCC(=O)O [LIPOXIN A4]	35.9%	35.3%	5				
CCCCC[C@@H](O)c1nc(-c2ccccc2)n(-c2ccccc2)c1/C=C/[C@@H](O)[C@@H](O)CCCC(=O)OC				30%	0.5	42.5%	
CCCCC[C@H](O)c1nc(-c2ccccc2)n(-c2ccccc2)c1/C=C/[C@@H](O)[C@@H](O)CCCC(=O)OC					0.6	19.5%	41%
